# Legend:
# RARγ = biological target: T1, RARγ (Homo sapiens, UniProt P13631); assay: ligand binding assay, RARγ; conditions: read-out: RAR Bind. Ki γ
# T1 sequence (P13631 1-454): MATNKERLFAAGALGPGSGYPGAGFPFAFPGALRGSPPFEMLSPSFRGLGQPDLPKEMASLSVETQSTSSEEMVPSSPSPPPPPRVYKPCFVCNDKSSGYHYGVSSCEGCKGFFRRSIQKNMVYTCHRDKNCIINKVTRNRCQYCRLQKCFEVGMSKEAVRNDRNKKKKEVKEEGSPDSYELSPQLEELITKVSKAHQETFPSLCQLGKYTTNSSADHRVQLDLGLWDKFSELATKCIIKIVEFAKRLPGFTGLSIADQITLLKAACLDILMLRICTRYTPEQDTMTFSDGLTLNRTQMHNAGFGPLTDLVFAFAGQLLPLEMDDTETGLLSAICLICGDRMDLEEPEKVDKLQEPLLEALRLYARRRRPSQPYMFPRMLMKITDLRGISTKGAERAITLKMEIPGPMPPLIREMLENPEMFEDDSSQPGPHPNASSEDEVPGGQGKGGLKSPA
# Description: (§1) A holoreceptor transactivation assay and a ligand binding assay which measure the antagonist/agonist like activity of the compounds of the invention, or their ability to bind to the several retinoid receptor subtypes, respectively, are described in published PCT Application No. WO WO93/11755 (particularly on pages 30–33 and 37–41) published on Jun. 24, 1993, the specification of which is also incorporated herein by reference. […] The results obtained in this assay are expressed in EC50 numbers, as they are also in the chimeric receptor transactivation assay. The results of the ligand binding assay are expressed in Ki numbers. (See Cheng et al. Biochemical Pharmacology Vol. 22 pp 3099–3108, expressly incorporated herein by reference.)
# (§2) In Table 1 NA stands for not active at all as an agonist. ND stands for not determined. The first row of numbers pertaining to each compound is the measured EC50 number. […] The third row of numbers pertaining to each compound is the binding Ki number.
# RARβ [1] = biological target: T2, RARβ (Homo sapiens, UniProt P10826); assay: chimeric receptor transactivation assay, RARβ; format: cell-based; conditions: for EC50: NA = not active at all as an agonist, read-out: RAR Trans. EC50 β; for RAR β efficacy in percentage as compared to the standard compound: number in brackets
# T2 sequence (P10826 183-417 limits assumed): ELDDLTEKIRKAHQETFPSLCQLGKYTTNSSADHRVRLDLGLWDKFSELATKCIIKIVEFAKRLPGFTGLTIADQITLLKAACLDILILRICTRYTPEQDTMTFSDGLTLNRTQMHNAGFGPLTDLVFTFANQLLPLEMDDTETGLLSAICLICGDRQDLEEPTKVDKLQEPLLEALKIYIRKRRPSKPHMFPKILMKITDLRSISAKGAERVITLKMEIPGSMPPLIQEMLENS
# Description: The specification of U.S. Pat. No. 5,455,265 is hereby expressly incorporated by reference.
# Table 1 discloses the activity of certain exemplary compounds of the invention in the above-described receptor transactivation and binding assays. Particularly, the transactivation data pertaining to activation of the RAR receptors were obtained in the chimeric assay, and the transactivation data pertaining to the activation of RXR receptors were obtained in the holoreceptor assay.
# Efficacy in a transactivation assay is expressed as a percentage of the maximum potency attained by the compound compared to a standard which, in this case, is the compound named (2E,4E,1′S,2′S)-3-methyl-5-[2′-methyl-2′-(5,5,8,8-tetramethyl-5,6,7,8-tetrahydro-naphthalen-2-yl)-cyclopropyl]-penta-2,4-dienoic acid.
# as §2
# RXRβ [2] = biological target: T3, RXRβ (UniProt P28704); assay: ligand binding assay, RXRβ; conditions: read-out: RXR Bind Ki β
# T3 sequence (P28704 1-520): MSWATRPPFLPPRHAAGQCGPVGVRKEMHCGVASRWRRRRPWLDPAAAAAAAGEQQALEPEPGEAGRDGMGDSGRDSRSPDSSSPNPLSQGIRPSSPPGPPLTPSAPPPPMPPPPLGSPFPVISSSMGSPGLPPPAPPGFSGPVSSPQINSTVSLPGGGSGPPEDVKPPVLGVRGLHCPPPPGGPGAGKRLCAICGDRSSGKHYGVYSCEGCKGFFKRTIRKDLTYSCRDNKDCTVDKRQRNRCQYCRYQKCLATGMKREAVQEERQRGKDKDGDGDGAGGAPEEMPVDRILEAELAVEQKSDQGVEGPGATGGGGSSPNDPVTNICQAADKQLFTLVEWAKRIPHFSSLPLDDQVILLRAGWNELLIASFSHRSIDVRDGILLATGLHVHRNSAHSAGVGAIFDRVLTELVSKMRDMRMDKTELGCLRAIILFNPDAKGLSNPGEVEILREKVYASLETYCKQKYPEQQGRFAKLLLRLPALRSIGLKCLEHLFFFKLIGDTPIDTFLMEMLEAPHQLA
# Description: as §1, §2
# RARβ [3] = biological target: T4, RARβ (Homo sapiens, UniProt P10826); assay: ligand binding assay, RARβ; conditions: read-out: RAR Bind. Ki β
# T4 sequence (P10826 1-455): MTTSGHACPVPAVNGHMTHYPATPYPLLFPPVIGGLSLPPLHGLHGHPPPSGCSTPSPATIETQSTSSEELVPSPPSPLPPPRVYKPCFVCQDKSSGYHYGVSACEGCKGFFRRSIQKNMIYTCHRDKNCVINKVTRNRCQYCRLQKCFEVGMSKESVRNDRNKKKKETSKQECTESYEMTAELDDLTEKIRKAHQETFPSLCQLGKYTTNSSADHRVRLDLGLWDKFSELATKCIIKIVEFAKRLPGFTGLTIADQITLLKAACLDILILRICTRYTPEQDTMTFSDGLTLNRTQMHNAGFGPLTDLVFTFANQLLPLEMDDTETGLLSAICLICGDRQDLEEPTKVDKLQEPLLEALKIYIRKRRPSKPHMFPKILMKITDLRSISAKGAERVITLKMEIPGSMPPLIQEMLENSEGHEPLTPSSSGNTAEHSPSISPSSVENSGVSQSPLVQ
# Description: as §1, §2
# RXRβ [4] = biological target: T3, RXRβ; assay: holoreceptor transactivation assay, RXRβ; format: cell-based; conditions: for RXR β efficacy in percentage as compared to the standard compound / EC50: holoreceptor assay; for RXR β efficacy in percentage as compared to the standard compound: number in brackets; for EC50: read-out: RXR Trans. EC50 β; for efficacy in activating RXRβ compared with RXRα and RXRγ subtypes (in words): transactivation, Table 1
# Description: The results obtained in this assay are expressed in EC50 numbers, as they are also in the chimeric receptor transactivation assay. The results of the ligand binding assay are expressed in Ki numbers.
# Particularly, the transactivation data pertaining to activation of the RAR receptors were obtained in the chimeric assay, and the transactivation data pertaining to the activation of RXR receptors were obtained in the holoreceptor assay.
# as §2
SMILES,Ki (RARγ),EC50 (RARβ [1]),RAR β efficacy in percentage as compared to the standard compound (RARβ [1]),Ki (RXRβ [2]),Ki (RARβ [3]),RXR β efficacy in percentage as compared to the standard compound (RXRβ [4]),EC50 (RXRβ [4]),efficacy in activating RXRβ compared with RXRα and RXRγ subtypes (in words) (RXRβ [4])
"CCOc1cc2c(cc1\C(CC)=C(F)/C=C/C(C)=C/C(=O)O)C(C)(C)CCC2(C)C [Compound 2, (2E,4E,6E)-7-(3-Ethoxy-5,5,8,8-tetramethyl-5,6,7,8-tetrahydronaphthalen-2-yl)-6-fluoro-3-methylnona-2,4,6-trienoic acid]",1.51 µM,0.25 µM,11%,0.023 µM,0.54 µM,46%,0.036 µM,significantly more effective in activating the RXRβ subtype
CCCOc1cc2c(cc1\C(C)=C(F)/C=C/C(C)=C/C(=O)O)C(C)(C)CCC2(C)C [Compound 4],0.72 µM,0.185 µM,16%,0.057 µM,0.49 µM,24%,0.062 µM,significantly more effective in activating the RXRβ subtype
